Assay [1] concerns human progesterone receptor altered at the Tau-1 location. The assay is described as follows: Co-transfection assay in CV-1 cells, progesterone receptor altered at Tau-1, antagonist activity. The format is cell-based. The settings on record: for Efficacy (% maximal response relative to RU-486), CV-1 cells: antagonist activity; for IC50: concentration required to reduce the maximal response by 50%, read-out: Potency (IC50), CV-1 cells. The source says:
This assay is described in further detail in U.S. Pat. Nos. 4,981,784 and 5,071,773, which are incorporated herein by reference. The co-transfection assay provides a method for identifying functional ligands (either agonists which mimic, or antagonists which inhibit, the effect of hormones) for ligand-responsive receptor proteins.
The co-transfection assay provides a mechanism to evaluate ability of a compound to function as an agonist or antagonist of the activity modulated by an intracellular receptor. The co-transfection assay mimics an in vivo system in the laboratory. In the co-transfection assay, a cloned gene for an intracellular receptor is introduced by transfection (a procedure to induce cells to take up foreign genes) into a background cell substantially devoid of endogenous intracellular receptors. This introduced gene directs the recipient cells to make the intracellular receptor protein. A second gene is also introduced (co-transfected) into the same cells in conjunction with the intracellular receptor gene. This second gene functions as a reporter for the transcription-modulating activity of the target intracellular receptor. The reporter acts as a surrogate for the products normally expressed by a gene under control of the target receptor and its natural hormone.
A preferred reporter gene is one which expresses the firefly enzyme luciferase. The co-transfection assay can detect small molecule agonists or antagonists of target intracellular receptors. Exposing the cells to an agonist ligand increases reporter activity in the transfected cells that can be conveniently measured, reflecting ligand-dependent, intracellular receptor-mediated increases in reporter transcription. To detect antagonists, the co-transfection assay is carried out in the presence of a constant concentration of an agonist known to induce a defined reporter signal. Increasing concentrations of a test antagonist will decrease the reporter signal. The co-transfection assay is therefore useful to detect both agonists and antagonists of specific intracellular receptors. It determines not only whether a compound interacts with a particular intracellular receptor, but also whether this interaction mimics (agonizes) or blocks (antagonizes) the effects of the natural regulatory molecules on target gene expression.
Co-transfected cells are exposed to a medium to which is added the potential ligand that is being evaluated. If the candidate ligand diffuses into the cell and binds to the receptor and the resulting complex functions as an agonist, it binds to the co-transfected reporter gene and initiates transcription. When that gene is one that expresses, for example, luciferase, luciferase is produced which catalyzes a light-emitting reaction with its substrate luciferin. Thus, after cell lysis and the introduction of luciferin, the amount of light produced relative to the concentration of candidate ligand used in the assay provides a measure of the potency and efficacy of the compound tested. Antagonist activity is evaluated by adding the candidate ligand and a known agonist to the co-transfected cells.
The receptor cDNA was introduced in a mammalian expression vector under the control of the Rous Sarcoma virus LTR. […] A reporter vector was also transfected, containing a firefly luciferase gene under the control of the hormone-responsive promoter. […] The level of luciferase activity was then measured in cell extracts. Light emission is directly proportional to the effectiveness of the hormone-receptor complex in activating gene expression.
A total of three replicates per concentration point were tested for each compound, and the EC50 was calculated for each positive response. Both agonist and antagonist activity for each test compound was determined in parallel. […]

Assay [2] addresses T1, human progesterone receptor (Homo sapiens, UniProt P06401).
T1 sequence (P06401 1-933): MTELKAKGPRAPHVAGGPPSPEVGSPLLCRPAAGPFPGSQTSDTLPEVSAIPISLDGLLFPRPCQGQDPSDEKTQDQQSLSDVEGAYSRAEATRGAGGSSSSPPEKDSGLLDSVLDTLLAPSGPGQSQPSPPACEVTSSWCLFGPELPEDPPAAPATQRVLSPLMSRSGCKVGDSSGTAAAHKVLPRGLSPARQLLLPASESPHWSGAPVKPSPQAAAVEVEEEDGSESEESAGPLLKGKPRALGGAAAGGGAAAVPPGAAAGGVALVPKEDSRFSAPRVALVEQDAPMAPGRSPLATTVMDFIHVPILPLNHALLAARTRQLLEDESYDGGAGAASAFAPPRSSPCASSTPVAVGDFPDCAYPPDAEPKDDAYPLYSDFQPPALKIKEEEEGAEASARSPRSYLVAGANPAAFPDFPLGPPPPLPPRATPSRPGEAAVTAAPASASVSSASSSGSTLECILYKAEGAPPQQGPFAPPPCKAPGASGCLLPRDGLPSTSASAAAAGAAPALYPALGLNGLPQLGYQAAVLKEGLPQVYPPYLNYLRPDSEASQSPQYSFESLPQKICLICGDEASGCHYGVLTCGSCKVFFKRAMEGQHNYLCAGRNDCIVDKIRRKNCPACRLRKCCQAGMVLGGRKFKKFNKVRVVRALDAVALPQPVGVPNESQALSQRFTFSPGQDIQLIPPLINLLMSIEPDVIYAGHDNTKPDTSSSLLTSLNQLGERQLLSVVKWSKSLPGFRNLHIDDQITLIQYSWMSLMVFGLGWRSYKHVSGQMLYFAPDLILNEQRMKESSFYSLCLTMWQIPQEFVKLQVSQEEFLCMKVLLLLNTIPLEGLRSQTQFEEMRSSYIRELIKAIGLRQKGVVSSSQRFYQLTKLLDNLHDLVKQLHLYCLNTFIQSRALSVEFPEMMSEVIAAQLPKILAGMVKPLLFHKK
The assay is described as follows: Progesterone receptor binding (displacement of 3H-progesterone, whole cell extract of transfected CV-1 cells). Set-up: expressed in transfected cells; host or cells: CV-1 cells (calcium phosphate transfection), whole cell extract. Here is the method:
These tests were conducted according to the following illustrative example.
CO2 for 40 hours prior to harvest.
After incubation, cells were harvested and washed in phosphate buffered saline. Whole cell receptor extract was prepared by homogenizing the harvested cells in Tris-HCl buffer, pH=7.4, containing 30% glycerol, 1 mM EDTA, 12 mM monothioglycerol, 1 mM PMSF, and 0.5M potassium chloride. The homogenate was incubated at 4° C. for 60 min with resuspension every 10 min. The suspension was centrifuged (105,000×g, 60 min) and the supernatant was collected and flash frozen in liquid nitrogen and stored frozen at -70° C.
To a […] final volume incubation mixture, […] of 7.5% (w/v) dextran-coated charcoal suspension in gelatin phosphate buffer was added. The mixture was vortexed and incubated at 4° C. for 10 min and then centrifuged at 3000 rpm for 10 min. The amount of bound tritiated hormone was determined by liquid scintillation spectrophotometry of an aliquot of the supernatant. […]

Assay [3] concerns progesterone receptor (T47D cells). The assay can be described thus: Antagonist assay in T47D (human breast cancer) cells (Tables 1 and 2). The format is cell-based. The settings on record: for Efficacy (% maximal response relative to RU-486), T47D cells: antagonist activity; for IC50: concentration required to reduce the maximal response by 50%, read-out: Potency (IC50), T47D cells. The source says: The functional activities of the cyclocymopol analogues in the human breast cell line, T47D, were also investigated. T47D cells have proven to be a particularly useful model to investigate the molecular actions of sex steroids because they contain endogenous functional receptors for, and respond to, progestins, and their respective antagonists. […] In T47D cells, progestins induce de novo synthesis of a plasma-associated alkaline phosphatase, which has been reported to be similar, if not identical, to the alkaline phosphatase present in the normal breast and human milk. These tests were conducted according to the following illustrative example.
The assay was also run using T47D (human breast cancer) cells.

13 compounds from patent US5808139A (Ligand Pharmaceuticals Incorporated, priority 1994, dated 1998) can be followed below.

As to `C=C1CCCC(C)(C)C1Cc1cc(OC)c(Br)cc1OC(C)=O` (racemic) [A, 1-Methylidene-2-(2'-acetoxy-4'-bromo-5'-methoxyphenyl)methyl-3,3-dimethylcyclohexane], in assay [1], the “Efficacy (% maximal response relative to RU-486), CV-1 cells” value was 55% and the half-maximal inhibitory concentration (IC50) turned out to be 0.225 µM. Also, the equilibrium dissociation constant (Kd) in assay [2] is 0.1 µM. In assay [3], the “Efficacy (% maximal response relative to RU-486), T47D cells” value came to 70% and the concentration for half-maximal inhibition (IC50) amounted to 0.2 µM.

As for `C=C1C[C@H](C)CC(C)(C)[C@@H]1Cc1cc(OC)c(Br)cc1O` (relative stereo) [BB, cis-1-Methylidene-2-(2'-hydroxy-4'-bromo-5'-methoxyphenyl)methyl-3,3,5-trimethyleyclohexane], in assay [1], the “Efficacy (% maximal response relative to RU-486), CV-1 cells” value stood at 38% and the IC50 stood at 5.14 µM. For the same compound, the dissociation constant (Kd) in assay [2] was 0.028 µM. In assay [3], the “Efficacy (% maximal response relative to RU-486), T47D cells” value amounted to 41% and the IC50 worked out at 7.19 µM.

As for `C=C1C[C@@](C)(CO)CC(C)(C)[C@@H]1Cc1cc(OC)c(Br)cc1O` (relative stereo) [HH, trans-1-Methylidene-2-(2'-hydroxy-4'-bromo-5'-methoxyphenyl)methyl-3,3,5-trimethyl-5-(hydroxymethyl)cyclohexane], in assay [1], the “Efficacy (% maximal response relative to RU-486), CV-1 cells” value worked out at 85% and the half-inhibitory concentration (IC50) was 3 µM. The equilibrium dissociation constant (Kd) in assay [2] turned out to be 2.31 µM. Further, in assay [3], the “Efficacy (% maximal response relative to RU-486), T47D cells” value amounted to 81% and the IC50 was 1.1 µM.

Take `C=C1C=C(C)[C@@H](CCO)C(C)(C)[C@@H]1Cc1cc(OC)c(Br)cc1O` (relative stereo) [JJ, trans-1-Methylidene-4-(2-hydroxy)ethyl-6-(2'-hydroxy-4'-bromo-5'-methoxyphenyl)methyl-3,5,5-trimethylcyclohex-2-ene]: in assay [1], the “Efficacy (% maximal response relative to RU-486), CV-1 cells” value was 48% and the concentration for half-maximal inhibition (IC50) came out at 0.03 µM. The Kd in assay [2] amounted to 0.625 µM. Moreover, in assay [3], the “Efficacy (% maximal response relative to RU-486), T47D cells” value is given as 74% and the IC50 came to 3.6 µM.

As for `C=C1C=C[C@@H](C)C(C)(C)[C@@H]1Cc1cc(OC)c(Br)cc1O` (relative stereo) [KK, trans-1-Methylidene-6-(2'-hydroxy-4'-bromo-5'-methoxyphenyl)methyl-4,5,5-trimethylcyclohex-2-ene], in assay [1], the “Efficacy (% maximal response relative to RU-486), CV-1 cells” value is on record as 75% and the IC50 stood at 1.6 µM. In assay [2], the dissociation constant (Kd) amounted to 0.346 µM. In addition, in assay [3], the “Efficacy (% maximal response relative to RU-486), T47D cells” value is 76% and the IC50 is 1.3 µM.

For `C=C1CC[C@@H](C)C(C)(C)[C@@H]1Cc1cc(OC)c(Br)cc1O` (relative stereo) [LL, trans-1-Methylidene-2-(2'-hydroxy-4'-bromo-5'-methoxyphenyl)methyl-3,3,4-trimethylcyclohexane], in assay [1], the “Efficacy (% maximal response relative to RU-486), CV-1 cells” value is 91% and the half-maximal inhibitory concentration (IC50) was found to be 1.6 µM. The dissociation constant (Kd) in assay [2] came to 0.269 µM. Moreover, in assay [3], the “Efficacy (% maximal response relative to RU-486), T47D cells” value was 74% and the IC50 came to 0.5 µM.

Consider `C=C1CCCC(C)(C)C1Cc1cc(OC)c(Br)cc1O` (stereo in doubt) [G, (3S)-1-Debromocyclocymopol monomethyl ether], for which the “Efficacy (% maximal response relative to RU-486), CV-1 cells” value in assay [1] is listed as 45%. In assay [3], the “Efficacy (% maximal response relative to RU-486), T47D cells” value amounted to 50%.

Consider `C=C1C(C)=CCC(C)(C)C1Cc1cc(OC)c(Br)cc1OC(C)=O` (stereo in doubt) [Z, (3R)-5-Methyl-5,6-dehydro-1-debromocyclocymopol monomethyl ether, acetate], for which, in assay [1], the “Efficacy (% maximal response relative to RU-486), CV-1 cells” value worked out at 83% and the half-inhibitory concentration (IC50) is 0.66 µM. In assay [3], the “Efficacy (% maximal response relative to RU-486), T47D cells” value was found to be 81% and the IC50 was found to be 0.21 µM.

In the case of `C=C1CCCC(C)(C)C1Cc1cc(OC)c(Br)cc1O` (stereo not shown) [C, 1-Methylidene-2-(2'-hydroxy-4'-bromo-5'-methoxy-phenyl)methyl-3.3-dimethylcyclohexane], the “Efficacy (% maximal response relative to RU-486), CV-1 cells” value in assay [1] amounted to 55%. Also, the “Efficacy (% maximal response relative to RU-486), T47D cells” value in assay [3] came to 70%.

With `C=C1C=C(C)CC(C)(C)C1Cc1ccc2nonc2c1` (stereo not shown) [FF, 1-Methylidene-6-(benzofurazan-5'-yl)methyl-3,5,5-trimethylcyclohex-2-ene], in assay [1], the “Efficacy (% maximal response relative to RU-486), CV-1 cells” value is 72% and the IC50 was 1.95 µM. Also, in assay [3], the “Efficacy (% maximal response relative to RU-486), T47D cells” value worked out at 71% and the IC50 turned out to be 0.775 µM.

On to `C=C1C=C(C)CC(C)(C)C1C/C=C/c1cc(OC)c(Br)cc1O` (stereo not drawn) [GG, 1-Methylidene-6-[trans-(2'-Hydroxy-4'-bromo-5'-methoxyphenyl)-1-propenyl]-3,5,5-trimethylcyclohex-2-ene], for which, in assay [1], the “Efficacy (% maximal response relative to RU-486), CV-1 cells” value was found to be 61% and the IC50 was found to be 3.3 µM. In addition, in assay [3], the “Efficacy (% maximal response relative to RU-486), T47D cells” value came out at 65% and the half-inhibitory concentration (IC50) is 1.6 µM.

As for `C=C1C=C(C)CC(C)(C)C1Cc1cc(OC)c(Br)cc1O` (stereo not shown) [II, 1-Methylidene-6-(2'-hydroxy-4'-bromo-5'-methoxyphenyl)methyl-3,5,5-trimethylcyclohex-2-ene], the half-inhibitory concentration (IC50) in assay [1] was 3.57 µM.

With `C=C1C=CCC(C)(C)C1Cc1cc(OC)c(Br)cc1O` (stereo not shown) [K, 1-Methylidene-6-(2'-hydroxy-4'-bromo-5'-methoxyphenyl)methyl-5,5-dimethylcyclohex-2-ene], the “Efficacy (% maximal response relative to RU-486), CV-1 cells” value in assay [1] amounted to 70%. Further, the “Efficacy (% maximal response relative to RU-486), T47D cells” value in assay [3] was determined as 70%.
